Test results from patent publication US8815935B2, “Inhibitors of protein prenyltransferases” (The Regents of the University of California, priority 2008, dated 2014).
Where two headings read alike, the source gives them in different places. Each block holds one compound with its values, some of them ahead of it.

Tests used:
[1] = target: T1, GGTase-I (Rattus norvegicus, UniProt P53610+Q04631); assay: In vitro GGTase-I enzyme assay (IC50, kinetics); assay type: biochemical
T1 construct: purchased JENA BIOSCIENCE
Procedure: The GGTase-I assay was carried out using RhoA as a substrate protein, GGTase-I (JENA Bioscience) and [3H]geranylgeranyl pyrophosphate. Incubation was for 30 min at 37° C. GGTase-II (or RabGGTase) assay was carried out using YPTI as a substrate protein, GGTase-II (Calbiochem, San Diego, Calif.) plus REP1 (Calbiochem) and [3H]geranylgeranyl pyrophosphate. Incubation was for 30 min at 37° C. FIGS. 20D-20F show the three dimensional structure of GGTase I (D), FTsse (E) and GGTase II (F) which can be obtained from X-ray diffraction studies of protein crystals.
GGTase-I and FTase activities were determined by following the incorporation of radiolabeled isoprenoid [^3H]-geranylgeranyl or [^3H]-farnesyl into substrate proteins. FTase or GGTase-I (50 nM) were used to initiate reactions containing 0.4 μM of [^3H]-FPP or 0.5 μM of [^3H]-GGPP and 2 μM of MBP-tagged substrates (K-Ras4B for FTase; RhoA for GGTase-I) in 20 μl of buffer {50 mM Tris-HCl (pH 7.5), 10 mM MgCl2, […] and 5 mM DTT}. Inhibitors were added at the indicated concentrations. The final DMSO concentration was 2.5% for all samples.
Reactions were carried out for 10 min at 30° C. The reaction mixture was spotted onto a filter paper, treated with 10% trichloroacetic acid (TCA) followed by ethanol and acetone washing. The filter was counted using a scintillation counter. Kinetic assays in which the GGPP concentration was varied employed fixed concentrations of GGTase-I and RhoA, and reactions were carried out for 5 min. Similarly, fixed concentrations of GGTase-I and GGPP were used when the amount of RhoA was varied.

[2] = tested on: Jurkat cells; assay: Jurkat cell growth inhibition; assay type: cell-based, human
Procedure: In Table 4 in cell GI50 values for the growth inhibition of Jurkat cells are reported. The GI50 value is the concentration of a test compound needed to produce 50% growth inhibition in the cell type listed. In Table 4 the isolated yield of each synthetic step for the synthesis of corresponding compounds are also reported.
Panc-1 cells (Pancreatic cancer cell line) and Jurkat cells (T-cell leukemia) were treated with 12.5 μM of P5-H6 or 12.5 μM of mP5-H6a for 72 hours. The cell number was counted as described in Example 5.
(§1) Cell viability was determined by Cell Counting Kit-8 (CCK-8, Dojindo, Kumamoto, Japan) as described previously (31). Cell viability was calculated relative to the DMSO control. Cell cycle profile was analyzed by flow cytometry as described previously (32).

[3] = tested on: K562 cells; assay: K562 cell growth inhibition; assay type: cell-based, human; settings: Tables 8-15; no unit printed there
Procedure: K562 cells are a cell line of human erythroleukemia cells. The K562 cells were treated with P3-E5, P5-H6 or GGTI-298 (a known GGTI compound illustrated in FIG. 27) for 72 hours and then cell number was counted using cell counting kit-8 (Dojindo, Gaithersburg, Md.). Cell viability relative to the DMSO control and the known GGTI compound is plotted in FIG. 23.
as §1

[4] = Tables 3, 5, 7, read-out: In vitro (enzyme assay) IC50, GGTase I
[5] = Homo sapiens, Jurkat, Tables 4, 6, 7, read-out: Jurkat cell GI50
[6] = Tables 5, 14, read-out: In vitro (enzyme assay) IC50, GGTase I
[7] = Tables 4, 6, 7, read-out: Jurkat cell GI50
[8] = Tables 8-15, no unit printed there, read-out: Jurkat GI50
[9] = Tables 8-15, no unit printed there (Table 7 head: μM unless otherwise specified), read-out: In vitro (GGTase I IC50)
[10] = Homo sapiens, Jurkat, Tables 8-15, no unit printed there, read-out: Jurkat GI50

Compound: CCOC(=O)C1=C[C@@H](C(C)(C)C)N(S(=O)(=O)c2ccccc2C)[C@H]1c1ccc(Cl)cc1
- IC50 [1, 4]: > 50 µM
- GI50 [2, 5]: 18.5 µM

Compound: CONC(=O)C1=C[C@@H](C(C)(C)C)N(S(=O)(=O)c2ccccc2C)[C@H]1c1ccc(Cl)cc1
- IC50 [1, 4]: 3.8 µM
- GI50 [2, 5]: 12.6 µM

Compound: Cc1ccccc1S(=O)(=O)N1[C@@H](c2ccc(Cl)cc2)C(C(=O)N[C@@H](Cc2ccccc2)C(=O)O)=C[C@H]1C(C)(C)C [P61-A08]
- IC50 [1, 4]: 1.4 µM
- GI50 [2, 5]: 13 µM

Compound: CC(C)(C)[C@@H]1C=C(C(=O)N[C@@H](Cc2ccccc2)C(N)=O)[C@H](c2ccc(Cl)c(Cl)c2)N1S(=O)(=O)c1c(Cl)cccc1Cl [P61-D10]
- GI50 [3]: 3.67 µM
- GI50 [2, 7]: 5.28 µM
- GI50 [2, 8]: 5.28 µM

Compound: Cc1ccccc1S(=O)(=O)N1[C@@H](c2ccc(Cl)cc2)C(C(=O)N[C@@H](Cc2ccccc2)C(N)=O)=C[C@H]1C(C)(C)C [P61-A06]
- GI50 [2, 5]: 4.89 µM

Compound: COC(=O)[C@H](Cc1ccccc1)NC(=O)C1=C[C@@H](C(C)(C)C)N(S(=O)(=O)c2ccccc2C)[C@H]1c1ccc(Cl)cc1 [P61A5]
- GI50 [3]: 17 µM
- GI50 [2, 8]: 10.5 µM

Compound: COC(=O)[C@H](Cc1ccccc1)NC(=O)CCOCC1=C[C@@H](C(C)(C)C)N(S(=O)(=O)c2ccccc2C)[C@H]1c1ccc(Cl)cc1
- IC50 [1, 9]: > 20 µM
- GI50 [2, 10]: 5.1 µM

Compound: Cc1ccccc1S(=O)(=O)N1[C@@H](c2ccc(Cl)cc2)C(C(=O)N[C@@H](Cc2ccccc2)C(N)=O)=C[C@H]1C(C)(C)C [P61-B07]
- GI50 [2, 7]: 6.1 µM

Compound: COC(=O)[C@H](Cc1ccccc1)NC(=O)C1=C[C@@H](C(C)(C)C)N(S(=O)(=O)c2ccccc2C)[C@H]1c1ccc(Cl)cc1 [P61-A05]
- GI50 [2, 7]: 10.5 µM

Compound: Cc1ccccc1S(=O)(=O)N1[C@@H](c2ccc(Cl)cc2)C(C(=O)N[C@@H](CC(C)C)C(N)=O)=C[C@H]1C(C)(C)C [P61-B02]
- IC50 [1, 4]: 8.1 µM
- GI50 [2, 5]: 6.58 µM

Compound: CC(C)(C)[C@@H]1C=C(C(=O)O)[C@H](c2ccc(Cl)c(Cl)c2)N1S(=O)(=O)c1ccccc1Br
- IC50 [1, 9]: 0.348 µM

The next lines start with the values.

- IC50 [1, 4]: > 50 µM
- GI50 [2, 5]: 6.1 µM
Compound: Cc1ccccc1S(=O)(=O)N1C(c2cccc(Cl)c2)C(C(=O)N[C@@H](CC(C)C)C(N)=O)=CC[C@H]1c1ccc(Cl)cc1 (stereo partly shown) [P61-C05]

- IC50 [1, 6]: 0.45 µM
Compound: NC(=O)[C@H](Cc1ccccc1)NC(=O)C1=CC[C@@H](c2cccc(Br)c2)N(S(=O)(=O)c2ccc(Cl)cc2)C1c1cccc(Cl)c1 (stereo partly shown) [P61-G02]

- IC50 [1, 6]: 0.15 µM
Compound: O=C(NC(Cc1ccccc1)C(=O)O)C1=CCC(c2cccc(Cl)c2)N(S(=O)(=O)c2ccc(Br)cc2)C1c1cccc(Cl)c1 (stereo not shown) [P61-G05]

- IC50 [1, 6]: 0.021 µM
Compound: O=C(NC(Cc1ccccc1)C(=O)O)C1=CCC(c2cccc(Cl)c2)N(S(=O)(=O)c2ccc(Cl)cc2)C1c1cccc(Cl)c1 (stereo not shown) [P61-H09]

- IC50 [1, 9]: 0.31 µM
- GI50 [2, 10]: 20 µM
Compound: Cc1ccccc1S(=O)(=O)N1C(c2cccc(Cl)c2)C(C(=O)O)=CC[C@H]1c1ccc(Cl)cc1 (stereo partly shown) [drawing 183]

- IC50 [1, 6]: 0.011 µM
Compound: O=C(N[C@@H](Cc1ccccc1)C(=O)O)C1=CC[C@@H](c2cccc(Br)c2)N(S(=O)(=O)c2ccc(F)cc2)[C@H]1c1cccc(Cl)c1 [P61-H07]

- IC50 [1, 4]: > 20 µM
- GI50 [2, 5]: 8 µM
Compound: COC(=O)C(CC(C)C)NC(=O)C1=CCC(c2cccc(Cl)c2)N(S(=O)(=O)c2ccc(Br)cc2)C1c1cccc(Br)c1 (stereo not shown) [P67-A04]

- IC50 [1, 9]: > 50 µM
- GI50 [2, 10]: 6.1 µM
Compound: COC(=O)[C@H](CC(C)C)NC(=O)C1=CC[C@@H](c2ccc(Cl)cc2)N(S(=O)(=O)c2ccccc2C)C1c1cccc(Cl)c1 (stereo partly shown)

- IC50 [1, 9]: > 50 µM
Compound: Cc1ccccc1S(=O)(=O)N1[C@@H](c2cccc(Cl)c2)C(C(=O)N[C@@H](CC(C)C)C(N)=O)=CC[C@H]1c1ccc(Cl)cc1

- IC50 [1, 4]: > 20 µM
Compound: COC(=O)C(CC(C)C)NC(=O)C1=CCC(c2cccc(Br)c2)N(S(=O)(=O)c2ccc(Cl)cc2)C1c1cccc(Cl)c1 (stereo not shown) [P67-A07]

- IC50 [1, 4]: > 20 µM
Compound: COC(=O)C(CC(C)C)NC(=O)C1=CCC(c2cccc(Br)c2)N(S(=O)(=O)c2ccc(F)cc2)C1c1cccc(Cl)c1 (stereo not shown) [P67-H11]
